This note sets out measurements from patent US7671203B2, “Method and system for separation and purification of at least one narcotic alkaloid using reverse phase preparative chromatography” (Mallinckrodt Inc., priority 2003, dated 2010).

A value given as a limit tells only on which side of the number the result lay.

The data set is described as follows: Solubility of codeine in water.

`COc1ccc2c3c1O[C@H]1[C@@H](O)C=C[C@H]4[C@@H](C2)N(C)CC[C@@]341` [Codeine, codeine]: the “concentration above which codeine is not fully soluble in water” value is given as no more than 30 grams/liter.
